Test results from patent publication US9802954B2, “Piperidino-dihydrothienopyrimidine sulfoxides and their use for treating COPD and asthma” (Boehringer Ingelheim International GmbH, priority 2011, dated 2017).
Entries after “also recorded” stand apart in the source; their conditions may differ.

Assays:
conscious rats = assay: Gastric emptying and gastrointestinal transit in conscious rats (barium sulfate test meal); assay type: in vivo, rat; details: Wistar rats, p.o. 30 min before test meal; for gastric emptying compared to negative control / intestinal transit compared to negative control: all tested doses up to the 30-fold ED50 dose
Procedure: In order to evaluate whether the compounds of the present invention lead to gastrointestinal side effects the compounds of the invention have been administered to rats 30 minutes before the rats were fed with a test meal comprising barium sulfate. After that it was tested whether gastric emptying and/or gastrointestinal transit in these rats was affected by the presence of these compounds.
The effects of the compounds Example 1 and Example 2 on gastric emptying and gastrointestinal transit in conscious rats has been investigated as described below.
Wistar rats of both sexes weighing 130-160 g (ages: male 7 wk, female 8 wk) were used. The animals are obtained from an approved local distributor, a minimum of four days quarantine is required before use, during which time the animals are maintained under routine animal care procedures. Groups of up to 5 animals are housed in cages in a room with controlled temperature and humidity and a light/dark cycle with the lights on from 6 a.m. to 6 p.m. The animals have access to normal rodent chow and water ad libitum. The animals are transported to the laboratory on the day of experimentation.
Gastric emptying as well as small intestinal propulsion are determined using a barium sulfate test meal.
Five rats Crl:WI(Han) of each sex (n=10) were used. The animals were deprived of food 17 h prior to the experiment but allowed free access to water. The drug under investigation (drug was suspended to the concentration of 10 ml/kg body weight in 0.5% Natrosol solution) or the negative control (vehicle alone was given 10 ml/kg body weight) was administered 30 min. (p.o.) before the test meal at doses calculated to be 3-fold, 10-fold or 30-fold the ED50 found in efficacy studies in the rat.
The test meal (suspension of 7.5 g barium sulfate in 10 ml salt-free water) is given orally by gavage at a dose of 2 ml/100 g body weight. Thirty minutes after the administration of the test meal the animals were killed in deep isoflurane anaesthesia by cervical dislocation. The stomach and the intestine were then exposed by laparatomy and removed.
The removed stomach was weighed, then incised, the contents removed and the empty stomach is weighed again.
The length of gut traversed with barium sulfate in relation to the whole length of the gut is determined by direct measurements using a ruler.
The gastric content was calculated from the weight difference between the filled and empty stomach and normalized to 100 g body weight. Thus, an increase in weight difference indicated an impaired gastric emptying, whereas a decrease in weight difference indicated an enhanced gastric emptying.
The length of gut traversed with barium sulphate (as judged by visual inspection) in relation to the whole length of the gut (from the pylorus to the rectum) is determined by direct measurements using a ruler.
Intestinal transit is calculated as the percentage movement of barium sulphate in the intestine in relation to the whole length of the gut. Consequently an increased intestinal transit length indicated an accelerated intestinal transit whereas a decreased intestinal transit length indicated decelerated intestinal transit.
Data are expressed as mean±standard deviation (SD). For each dose, comparisons were performed using an analysis of variance (ANOVA) and a post hoc Dunnett test to compare the various groups to the controls when the ANOVA was significant. p<0.05 was considered significant.

[1] = system: LPS-induced neutrophil influx into bronchoalveolar lavage fluid of male Wistar rats; assay: LPS-induced lung inflammation model: inhibition of LPS-induced neutrophil influx into bronchoalveolar lavage fluid; assay type: in vivo, rat; details: oral by gavage, BALF 4 hours after end of LPS exposure
Procedure: The anti-inflammatory activity of Examples 1 and 2 and of Prior art compounds A and D was assessed in an in vivo LPS-induced lung inflammation model in rats.
As a measure of the pharmacological potency of the above mentioned compounds the half-maximal effective dose (ED50) in regard to the inhibition of lipopolysaccharide-induced (LPS-induced) neutrophil influx into the bronchoalveolar lavage fluid (BALF) was determined by assessing the dose response relationship. Bacterial endotoxins (lipopolysaccharides [LPS]) are components of the outer bacterial cell membrane which play an important role in the pathogenesis of infections with gram-negative bacteria. It is known that inhalation of such aerosolized LPS induces a dose-dependent increase in neutrophils to lung tissues and airspaces in rats which may be detected by analyzing the amount of neutrophils in the bronchoalveolar lavage fluid (BALF). […]
Determination of neutrophil content of the BALF was performed using an ADVIA 120 blood hemacytometer (Bayer Diagnostics). Neutrophil data were normalised (Positive Control (=LPS treatment alone)=100%, Negative Control (no LPS treatment, administration of “vehicle only”)=0%) and expressed as percent of LPS control. The ED50 was calculated using a nonlinear fit (with the Graph Pad Prism software and a sigmoidal dose response fit). […]

SMILES	gastric emptying (weight difference per body weight) compared to negative control (conscious rats; 3-fold ED50 dose)	gastric emptying (weight difference per body weight) compared to negative control (conscious rats; 10-fold ED50 dose)	gastric emptying (weight difference per body weight) compared to negative control (conscious rats; 30-fold ED50 dose)	gastric emptying compared to negative control (conscious rats)	intestinal transit compared to negative control (conscious rats)	ED50 (inhibition of LPS-induced neutrophil influx into BALF) [1]
[O-][S+]1CCc2nc(N3CCC(c4ccc(Cl)cc4)CC3)nc(NC3(CO)CCC3)c21 (single isomer, unassigned) [Example 1]	no relevant differences	no relevant differences	only a very moderate enhancement of the weight difference per body weight	neither showed a substantially enhanced or impaired gastric emptying	no significant differences	–
[O-][S+]1CCc2nc(N3CCC(c4ncc(Cl)cn4)CC3)nc(NC3(CO)CCC3)c21 (single isomer, unassigned) [Example 2]	–	–	–	neither showed a substantially enhanced or impaired gastric emptying; also recorded: no relevant differences	no relevant differences	–
[O-][S+]1CCc2nc(N3CCC(c4ccc(Cl)cc4)CC3)nc(NC3(CO)CC3)c21 (stereo not drawn) [Prior art compound A]	–	–	–	–	–	1.13 mg/kg body weight
[O-][S+]1CCc2nc(N3CCC(c4cccc(Cl)c4)CC3)nc(NC3(CO)CC3)c21 (stereo not drawn) [Prior art compound D]	–	–	–	–	–	6.66 mg/kg body weight
